Reference: PubChem BioAssay (NCI)
Values joined by “and” are separate entries in the source; they are usually repeats but may differ in a detail not shown here. Equal values may be shown once.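 Cells were grown in 96-well plates and exposed to each compound for 48 hours at five concentrations; endpoints were interpolated linearly between bracketing concentrations, or set to the highest concentration if not reached. At the GI50, growth is halved. TGI: concentration producing complete growth inhibition.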 *1 amine or outer side, *2 acyl side, *3 side chain or, on linkers, in order; H or OH if unused. Where a SMILES comes first, the peptide text is derived from it. Bridges are numbered along the chain shown (N, C = ends). Roman numbers before positions name the chains, in order. [ ]: non-standard residue; d: D form. Actinocin(9to1) = Cc1c2oc3c(C)ccc(C(=O)[*:1])c3nc-2c(C(=O)[*:2])c(N)c1=O; NMeV = CN[CH](C(=O)O)C(C)C; Sar = CNCC(=O)O

What was measured:
Assay in all cases: NCI-60 cell line screen, 48 h
[1] = test system: 786-0 renal
[2] = test system: CCRF-CEM leukemia
[3] = test system: HCT-116 colon
[4] = test system: HL-60(TB) leukemia
[5] = test system: HT29 colon
[6] = test system: IGROV1 ovarian
[7] = test system: K-562 leukemia
[8] = test system: NCI-H226 lung
[9] = test system: RXF 393 renal
[10] = test system: SK-MEL-5 melanoma

| SMILES | TGI [1] | TGI [2] | TGI [3] | TGI [4] | TGI [5] | TGI [6] | TGI [7] | TGI [8] | TGI [9] | TGI [10] | GI50 [2] | GI50 [8] | GI50 [9] |
| --- | --- | --- | --- | --- | --- | --- | --- | --- | --- | --- | --- | --- | --- |
| O=C(c1ccccc1)c1ccc2nc(-c3c(Cl)c(Cl)c(Cl)c(Cl)c3-c3nnc(-c4ccccc4)o3)[nH]c2c1 | > 100 µM | > 100 µM | > 100 µM | > 100 µM | > 100 µM | > 100 µM | > 100 µM | 97.7 µM | 47.1 µM | 54.1 µM |  |  |  |
| Cc1c(CNc2ccc(C(=O)NC(CCCNC(=O)c3ccccc3C(=O)O)C(=O)O)cc2)cnc2nc(N)nc(N)c12 (stereo unspecified) | > 100 µM |  |  | > 100 µM |  |  |  | 2.91 µM | 2.15 µM |  | > 100 µM | 0.00248 µM | 0.279 µM |
| CC(=O)n1cc(C2CC23N=C(c2ccccc2)OC3=O)c2ccccc21 (stereo unspecified) | 33.5 µM | 7.86 µM | 27.9 µM | 6.12 µM | 39.9 µM | 38.3 µM | 77.6 µM | 44.5 µM | 34.6 µM | 40.2 µM |  |  |  |
| Cc1c2oc3c(C)ccc(C(=O)NC4C(=O)NC(Cc5ccccc5)C(=O)N5CCCC5C(=O)N(C)CC(=O)N(C)C(C(C)C)C(=O)OC4C)c3nc-2c(C(=O)NC2C(=O)NC(Cc3ccccc3)C(=O)N3CCCC3C(=O)N(C)CC(=O)N(C)C(C(C)C)C(=O)OC2C)c(N)c1=O (stereo unspecified) (I: TFP[Sar][NMeV] / II: TFP[Sar][NMeV]; ester I:1-I:C, II:1-II:C; linker I:N-II:N via Actinocin(9to1); configuration not given here) |  | 0.00791 µM | 0.00736 µM | < 0.001 µM | 0.0108 µM | 0.0165 µM | 0.00316 µM | 0.0214 µM and 0.0312 µM | 0.00952 µM and 0.0394 µM | 0.0192 µM and 0.0125 µM |  |  | < 0.001 µM |
| Cn1cccc1-c1ccc(-c2ccc(CO)[se]2)[se]1 | > 100 µM | > 46.7 µM | > 100 µM | 18.9 µM | > 100 µM | > 100 µM | > 100 µM | 5.89 µM | 43.2 µM | > 75 µM |  |  |  |
| CC(=O)O[C@H]1CC[C@@]2(C)C(=CC[C@@H]3[C@@H]2CC[C@]2(C)C(=N/O)/C(=C\c4ccccc4)C[C@@H]32)C1 | > 55.4 µM | > 100 µM | > 100 µM | 49.3 µM | > 100 µM | > 100 µM | > 100 µM | 44.9 µM | 40 µM | 11.4 µM |  |  |  |
| C/C=C(\C)C(=O)OC1CC(OC(C)=O)C2(C(=O)OC)COC3C2C1(C)C1C2(C(=O)OC)OCC1(C3O)C1(O)C3CC(C4(O)C=COC4O3)C1(C)O2 (stereo unspecified) | > 100 µM |  | > 100 µM | > 100 µM | > 100 µM | > 100 µM | > 100 µM | > 100 µM | > 100 µM | > 100 µM |  |  |  |
| Cc1cc(S(=O)(=O)Nc2nc3ncccc3[nH]2)c(S)cc1Cl | > 100 µM | > 100 µM | > 100 µM | > 100 µM | > 100 µM | > 100 µM | > 100 µM | > 100 µM | > 100 µM | > 100 µM |  |  |  |
| COc1cc2cc(C(=O)N3CC(COS(C)(=O)=O)c4ccc(NC(=O)OCc5ccccc5)cc43)[nH]c2c(OC)c1OC (stereo unspecified) | > 100 µM | > 100 µM | > 100 µM | > 100 µM | > 100 µM | > 100 µM | > 100 µM | > 100 µM | > 100 µM | > 100 µM |  |  |  |
| Cc1cc(-n2nnc(C(=O)O)c2-c2ccccc2)c2ccc(Cl)cc2n1 | > 100 µM | > 100 µM | > 100 µM | > 100 µM | > 100 µM | > 100 µM | > 100 µM | > 100 µM | > 100 µM | > 100 µM |  |  |  |
